Experimental data as given in article PMC11729425 (ACS Pharmacology & Translational Science, 2024).

Experiments:
Aged C57BL/6J mice = assay: Grip strength; format: in vivo, C57BL/6JRj mice; conditions: 1 mg/kg in the food, week 8, 4 limbs, normalized to BW
Procedure: Grip strength was evaluated using a grip strength test. Each mouse’s grip strength was measured using a pulldown grid assembly connected to a grip strength meter (Columbus Instruments). The mouse was pulled along a straight line parallel to the grip to determine peak force. The experiment was conducted three times, and the highest recorded value was considered for the analysis.

[1] = system: gastrocnemius muscles of aged mice; assay: RNAseq / gene set enrichment analysis of gastrocnemius muscle of aged mice; format: in vivo, C57BL/6JRj mice
Procedure: Figure 3 ALT-007 preserves muscle mass and rewires skeletal muscle gene expression during aging. (A) Lean mass measured by echoMRI after 11 weeks of treatment (ALT-007:1 mg/kg; DMSO: equivalent volume, for 20 weeks). (B) Gastrocnemius and (C) Tibialis anterior muscle weight after 20 weeks of treatment. N = 12 per group. (D) Total ceramide levels measured in the gastrocnemius muscle. (E) Volcano plot of mitochondrial, proteostasis, amino acids, biosynthetic processes, and neuronal-related gene sets highlighted. (F,G) Gene set enrichment analysis (GSEA) of (F) pathways involved in protein folding and degradation and (G) neurogenesis pathways in the skeletal muscle of mice treated with ALT-007 (N = 5 in DMSO and N = 4 in ALT-007-treated groups). Adjusted P values in GSEA comparison are indicated as follows: *adjusted P < 0.05; **adjusted P < 0.01; ***adjusted P < 0.001.
RNA seq analysis was performed as previously described. Changes in cell composition were assessed by gene set enrichment analysis (GSEA) with the clusterProfiler package (Yu G. et al., 2012) and the MsigDB v7.5.1 mouse cell type signature set, accessed through the msigdbr package was performed. Only the gene sets relevant to skeletal muscle and neuronal cell types were retained.
1.2. Supplementary Figure 2
Gene set enrichment analysis using the MsigDB mouse cell type signature sets. Only the gene sets relevant to skeletal muscle and neuronal cell types were retained.
GSEA was performed with the cluserProfiler package and gene sets were accessed through the MsigDBr package.
(1 picture or pasted object on this page, not shown here)

[2] = gastrocnemius of aged mice, ALT-007 vs DMSO

COc1cc(C(=O)N2CC[C@H](NC(=O)c3ccccc3OC(F)(F)F)c3c2cnn3C(C)C)cnc1OC [ALT-007]
grip strength (Aged C57BL/6J mice): increased compared to aged control mice | neurogenesis pathways in the muscle, GSEA [1, 2]: remarkable upregulation of neurogenesis pathways | proteostasis pathways (protein folding and degradation), GSEA [1, 2]: enrichment of several proteostasis pathways | ribosomal and translation pathways, GSEA [1, 2]: significantly attenuated | neuronal cells in the skeletal muscles (GSEA, MsigDB mouse cell type signature sets) ([1]; old treated vs old untreated mice): increases neuronal cells
